The results in this text go back to PubChem BioAssay AID844 (SRMLSC, 2007).

Molecules are shown by their SMILES. The source made the active and inactive calls. The rule behind the calls is not given here.

This test concerns MRP1 cells, doxorubicin viability shift, 10 uM compound. The test is described as follows: viability protection against doxorubicin, MRP-1 line – cell-based, doxorubicin EC50 shift, dose response (AID 844). The note with it: for EC50: measured here: doxorubicin EC50 with compound.

For orientation: EC50 means the concentration needed to bring the measured effect to its halfway point. For `O=C1CC(N2CCCN(C3CC(=O)N(c4ccc(F)cc4)C3=O)CC2)C(=O)N1c1ccc(F)cc1` (stereo unspecified), the fold increase in Dox EC50 is 1.17 (inactive) and the EC50 was found to be 6.34 µM.

As to `N#CC1=C(N)SC(N)=C(C#N)C1c1cccc(O)c1`, the fold increase in Dox EC50 is 1.07 (inactive) and the EC50 was found to be 5.78 µM.

`Cc1csc(C(C#N)C(=O)c2cc3ccccc3o2)n1` (stereo unspecified): the fold increase in Dox EC50 was 1.19 (inactive) and the EC50 turned out to be 6.41 µM.

Regarding `COc1cc(/C=C(\C#N)c2ccccn2)ccc1OCc1ccccc1Cl`, the fold increase in Dox EC50 is 1.1 (inactive) and the EC50 stood at 5.95 µM.

For `Cc1ccc(-n2c(C)nnc2SCC(=O)Nc2ccccc2)cc1`, the fold increase in Dox EC50 is 1 (inactive) and the EC50 was determined as 5.41 µM.

Turning to `CC1CCN(c2ncnc3c2cnn3-c2ccccc2)CC1`, the fold increase in Dox EC50 was 0.31 (inactive) and the EC50 came out at 1.65 µM.

Take `Cc1ccc(NC(=O)Cc2csc(-c3ccccc3)n2)cc1F`: the fold increase in Dox EC50 is 1.22 (inactive) and the EC50 was 6.6 µM.

For the compound `Cc1c(C(=O)OC2CCC(C)CC2)[nH]c2c1C(=O)CCC2` (stereo unspecified), the fold increase in Dox EC50 was 0.93 (inactive) and the concentration giving a half-maximal response (EC50) amounted to 5.01 µM.

For the compound `Nc1nc2n(n1)C(c1cccs1)CC(c1ccc(Br)cc1)N2` (stereo unspecified), the fold increase in Dox EC50 was 0.91 (inactive) and the EC50 turned out to be 4.93 µM.

Take `CC(=O)N1CCN=C1SCc1ccc(Br)cc1`: the fold increase in Dox EC50 was 0.97 (inactive) and the EC50 amounted to 5.26 µM.

As to `O=C(Nc1nc(-c2ccc(Oc3ccccc3)cc2)cs1)C1=COCCO1`, the fold increase in Dox EC50 was 0.84 (inactive) and the EC50 came out at 4.54 µM.

Turning to `Cc1ccc(-c2nc(C3CCCN(S(=O)(=O)c4ccc(C)cc4)C3)no2)cc1` (stereo unspecified), the fold increase in Dox EC50 was 1.08 (inactive) and the EC50 amounted to 5.85 µM.

Consider `O=C(Nc1ccc(O)cc1)C1CCCO1` (stereo unspecified), for which the fold increase in Dox EC50 is 0.91 (inactive) and the EC50 is 4.92 µM.

Consider `Cc1ccc(/C=C2\SC(=S)N(c3c(C)n(C)n(-c4ccccc4)c3=O)C2=O)cc1`, for which the fold increase in Dox EC50 is 0.97 (inactive) and the EC50 was 5.23 µM.

As to `O=C(Nc1nc(-c2ccccc2)cs1)c1ccc(Br)o1`, the fold increase in Dox EC50 is 1.41 (inactive) and the EC50 came to 7.64 µM.

Turning to `COC(=O)/C(=C/Nc1ccc(O)cc1)[N+](=O)[O-]`, the fold increase in Dox EC50 was 0.21 (inactive) and the EC50 turned out to be 1.12 µM.

As for `CCCCN(C(=O)Cc1cccs1)c1nnc(-c2cccnc2)s1`, the fold increase in Dox EC50 is 0.86 (inactive) and the concentration for a half-maximal effect (EC50) came to 4.65 µM.

As for `Cc1cccc(NC(=O)/C(=C\c2ccc([N+](=O)[O-])o2)NC(=O)c2ccc(Cl)cc2)c1`, the fold increase in Dox EC50 is 0.75 (inactive) and the EC50 came to 4.04 µM.

Regarding `Cc1ccc(C)c2sc(NC(=O)c3ccc(N4CCCCC4)c([N+](=O)[O-])c3)nc12`, the fold increase in Dox EC50 was 1.05 (inactive) and the EC50 is 5.66 µM.

For the compound `Cc1nc2cc(-c3ccsc3-n3c(C)ccc3C)[nH]n2c(=O)c1Cl`, the fold increase in Dox EC50 was 0.74 (inactive) and the EC50 stood at 4 µM.

Take `CCOc1cc(/C=C2\SC(=Nc3ccccc3)N(c3ccccc3)C2=O)ccc1OCC(=O)O`: the fold increase in Dox EC50 is 0.94 (inactive) and the EC50 was 5.09 µM.

In the case of `COc1ccccc1N1CCN(C(=O)COc2ccc(Cl)cc2)CC1`, the fold increase in Dox EC50 is 0.8 (inactive) and the EC50 stood at 4.32 µM.

Turning to `CC(C)(C)c1cc(Br)ccc1OCC(=O)Nc1ncn[nH]1`, the fold increase in Dox EC50 is 0.89 (inactive) and the EC50 came out at 4.78 µM.

On to `COc1cccc(/C=N\NC(=O)C2=NNC(=O)C2C)c1O` (stereo unspecified), for which the fold increase in Dox EC50 is 1.2 (inactive) and the EC50 stood at 6.47 µM.

For the compound `Cc1ccc(C(=O)NNC(=O)c2ccc(SCC3CCCO3)c([N+](=O)[O-])c2)cc1` (stereo unspecified), the fold increase in Dox EC50 was 0.56 (inactive) and the EC50 was 3.01 µM.

With `CC(C)(C)c1ccc(-c2nc(-c3ccncc3)no2)cc1`, the fold increase in Dox EC50 was 0.77 (inactive) and the EC50 was 4.15 µM.

In the case of `Cc1cc(C)n(CCc2nc(-c3ccc(-c4ccccc4)cc3)cs2)n1`, the fold increase in Dox EC50 is 1.82 and the EC50 is 9.8 µM.

Regarding `COc1ccc(NC2=Nc3ccccc3N3C2=Nc2c(c(C)nn2-c2ccc(C)cc2)C3c2cccnc2)cc1` (stereo unspecified), the fold increase in Dox EC50 was 0.6 (inactive) and the concentration giving a half-maximal response (EC50) came out at 3.24 µM.

`COc1ccccc1C1CC(c2ccc(Cl)cc2Cl)Nc2nc(N)nn21` (stereo unspecified): the fold increase in Dox EC50 was 0.95 (inactive) and the half-maximal effective concentration (EC50) was determined as 5.11 µM.

Take `Cc1ccc(Nc2nnc(-c3ccc(N4CCOCC4)c([N+](=O)[O-])c3)c3ccccc23)cc1`: the fold increase in Dox EC50 is 0.61 (inactive) and the concentration giving a half-maximal response (EC50) is 3.28 µM.

As for `CCOC(=O)CCCCC(=O)c1[nH]c(=O)[nH]c1CSc1nc(-c2ccccc2)c(C#N)c(=O)[nH]1`, the fold increase in Dox EC50 is 1.22 (inactive) and the EC50 was 6.57 µM.

Turning to `CCCN1C(=O)/C(=N\OCC(=O)NC23CC4CC(CC(C4)C2)C3)c2ccccc21`, the fold increase in Dox EC50 is 1.01 (inactive) and the EC50 worked out at 5.43 µM.

As to `CCOC(=O)c1sc2nc3n(c(=O)c2c1C)CCCCC3`, the fold increase in Dox EC50 was 0.52 (inactive) and the EC50 came to 2.81 µM.

As to `CNc1sc(C(=O)c2cccs2)c(N)c1-c1nc2ccccc2s1`, the fold increase in Dox EC50 is 0.56 (inactive) and the half-maximal effective concentration (EC50) turned out to be 3.03 µM.

As to `CCc1ccc(C2CC(c3ccccc3C)n3nc(N)nc3N2)cc1` (stereo unspecified), the fold increase in Dox EC50 is 0.57 (inactive) and the concentration for a half-maximal effect (EC50) turned out to be 3.07 µM.

On to `CC1=C(C(=O)OC(C)C)C(c2cccc(F)c2)N2C(=O)C(C)SC2=N1` (stereo unspecified), for which the fold increase in Dox EC50 is 1.21 (inactive) and the half-maximal effective concentration (EC50) turned out to be 6.53 µM.

For `CCC(=O)N1CCN=C1SCc1ccccc1`, the fold increase in Dox EC50 is 0.74 (inactive) and the EC50 was 3.98 µM.

For the compound `COc1ccc(N2C(S)=C(C#N)C(=O)NC2c2ccco2)cc1` (stereo unspecified), the fold increase in Dox EC50 is 0.41 (inactive) and the EC50 was 2.2 µM.

On to `O=C1CC(c2ccccc2)c2cc(O)ccc2O1` (stereo unspecified), for which the fold increase in Dox EC50 is 0.99 (inactive) and the EC50 was determined as 5.35 µM.

On to `COc1ccc(C(C)=O)cc1CSc1nnc(Nc2ccccc2C)s1`, for which the fold increase in Dox EC50 is 0.75 (inactive) and the EC50 was determined as 4.04 µM.

In the case of `CCn1c(CNC(=O)COc2ccc(C(C)C)cc2)nnc1SCC(=O)Nc1ccccc1C(C)C`, the fold increase in Dox EC50 was 1.04 (inactive) and the EC50 came to 5.63 µM.

As for `CC(NC(=O)c1ccc(Br)cc1)c1ccc2c(c1)CCCC2` (stereo unspecified), the fold increase in Dox EC50 is 1.36 (inactive) and the EC50 turned out to be 7.33 µM.

With `CC1=C(C(=O)Nc2ccccc2C)C(c2ccc(C)o2)N2C(=O)CSC2=N1` (stereo unspecified), the fold increase in Dox EC50 is 1.01 (inactive) and the EC50 is 5.43 µM.

In the case of `Cc1nnc(NC(=O)C(C)Oc2ccc3c(C)cc(=O)oc3c2)s1` (stereo unspecified), the fold increase in Dox EC50 is 1.29 (inactive) and the EC50 stood at 6.99 µM.

On to `O=C(Cc1ccccc1F)Nc1cccc2cccnc12`, for which the fold increase in Dox EC50 was 1.68 and the EC50 was 9.04 µM.

As to `C/C(=N\NC(=O)CCc1c[nH]c2ccccc12)c1cccc([N+](=O)[O-])c1`, the fold increase in Dox EC50 is 0.8 (inactive) and the EC50 is 4.33 µM.

Take `C=CCNc1oc(COc2ccc(C)cc2)nc1C#N`: the fold increase in Dox EC50 is 0.66 (inactive) and the EC50 came to 3.59 µM.

In the case of `O=C(CSc1ncn[nH]1)Nc1ccc(Br)cc1F`, the fold increase in Dox EC50 was 0.98 (inactive) and the EC50 stood at 5.28 µM.

On to `CCN(C(=O)c1cc2cc3ccc(C)cc3nc2o1)c1ccc(OC)cc1`, for which the fold increase in Dox EC50 is 0.64 (inactive) and the EC50 turned out to be 3.46 µM.

Regarding `Cc1ccc(OCc2nc(-c3ccc(Cl)cc3)n[nH]2)cc1`, the fold increase in Dox EC50 is 0.79 (inactive) and the EC50 was determined as 4.24 µM.

In the case of `O=C(COC(=O)c1c(Cl)cccc1Cl)Nc1cc(Cl)ccc1Oc1ccccc1`, the fold increase in Dox EC50 was 0.36 (inactive) and the EC50 was 1.97 µM.

On to `CCc1nnc(NC(=O)C(C)N2C(=O)C3C4C=CC(C4)C3C2=O)s1` (stereo unspecified), for which the fold increase in Dox EC50 was 1.01 (inactive) and the concentration for a half-maximal effect (EC50) stood at 5.44 µM.

In the case of `N=c1oc2c3c4c(cc2cc1C(=O)Nc1ccccc1)CCCN4CCC3`, the fold increase in Dox EC50 is 0.43 (inactive) and the EC50 was 2.32 µM.

For `NC1=NC(=O)/C(=C/c2cn(CCC(=O)O)nc2-c2ccc(Cl)cc2)S1`, the fold increase in Dox EC50 is 0.93 (inactive) and the EC50 was 5.01 µM.

On to `COc1ccc(C(=O)NCCn2cc(SCC(=O)Nc3nnc(C)s3)c3ccccc32)cc1`, for which the fold increase in Dox EC50 is 0.5 (inactive) and the EC50 was 2.72 µM.

With `CCOC(=O)Cc1csc(NC(=S)NC(=O)C(C)(C)C)n1`, the fold increase in Dox EC50 was 1.2 (inactive) and the EC50 is 6.45 µM.

For `Cc1cccc(NC(=O)CC2SC(=O)N(c3ccccc3)C2=O)c1` (stereo unspecified), the fold increase in Dox EC50 is 0.95 (inactive) and the EC50 was found to be 5.15 µM.

For `Cc1ccc(S(=O)(=O)Nc2nc3ccccc3nc2NCc2ccc3c(c2)OCO3)cc1C`, the fold increase in Dox EC50 is 1.02 (inactive) and the EC50 was 5.49 µM.

As to `Cc1sc2nc(C3CC3)nc(N3CCN(S(=O)(=O)c4ccc(F)cc4)CC3)c2c1C`, the fold increase in Dox EC50 was 0.3 (inactive) and the EC50 was found to be 1.63 µM.

On to `O=[N+]([O-])c1ccc(O)c(/C=N/n2cnc3ccccc32)c1`, for which the fold increase in Dox EC50 was 0.67 (inactive) and the EC50 is 3.61 µM.

With `COCCOC(=O)c1c(C)oc2ccc(OCC=C(C)C)cc12`, the fold increase in Dox EC50 is 0.5 (inactive) and the EC50 amounted to 2.69 µM.

Consider `Cc1cccc2cc(CN(Cc3ccco3)S(=O)(=O)c3ccc4c(c3)OCCO4)c(=O)[nH]c12`, for which the fold increase in Dox EC50 was 0.96 (inactive) and the EC50 was found to be 5.19 µM.

Consider `N#C/C(=N/Nc1ccccc1F)C(=N)N1CCOCC1`, for which the fold increase in Dox EC50 is 0.99 (inactive) and the EC50 was 5.33 µM.
